According to patent US20060183147A1, “Methods of identifying genes which modulate myelination” (Elan Pharmaceuticals, Inc., priority 2005, published 2006):

Assays:
[1] = test system: MOG surface expression in optic nerve oligodendrocytes; assay: MOG cell surface label, optic nerve oligodendrocytes; format: cell-based, rat; conditions: after 6 days; control oligodendrocytes up-regulated MOG
Protocol: (§1) Purified rat optic nerve and enriched rat cortical oligodendrocytes were first grown in mitogenic medium and then switched to differentiation medium. Stimulated oligodendrocytes received the ADORA1 agonist, MECA, 24 hours later. Optic nerve oligodendrocytes were assessed 2, 4, and 6 days post MECA treatment, cortical oligodendrocytes, 3, 5, and 7 days post treatment. For the MOG cell surface label, cells were incubated with the anti-MOG antibody (1 μg/ml) for one hour at room temperature in phosphate buffered saline (PBS) containing sodium-pyruvate and glucose (Invitrogen) to ensure survival of cells during this time. Subsequently the cells were fixed, incubated in PBS containing 50% goat serum at RT for 30 minutes and incubated with a secondary antibody (FITC- or Cy3-coupled goat anti-mouse IgG antibody from Jackson Immunoresearch).

[2] = test system: rhoA expression in rat optic nerve oligodendrocytes; assay: rhoA expression by Quantitative RT-PCR in MECA-treated oligodendrocytes; format: cell-based
Protocol: Primers and probes were designed using the Primer Express software from Applied Biosystems. Probes were designed with 6-FAM as fluorophore at the 5′end and TAMRA as quencher at the 3′ end. QRT-PCR reactions were set up as a one-step reaction using 20 ng of total RNA as template, and included 1× Taqman™ buffer, 5 mM MgCl2, 1.5 mM dNTP mix, 300 nM forward and reverse primers, […] Taqman™ probe, 20 units RNase inhibitor, 5 units Multiscribe™ MuLV reverse transcriptase and 2 units AmpliTaq™ Gold DNA polymerase in a 50 microliter reaction. All reagents used were from Applied Biosystems. Reactions were run on a ABI 7500 using the following cycling conditions: “Hold” at 48° C. for 30 minutes, “Hold” at 95 for 10 minutes, “Denature” at 95° C. for 15 seconds, and “Anneal/Extend” at 60° C. for 1 minute. The last two steps were repeated for 40 cycles.
RhoA is a member of the Ras superfamily of small GTPases and functions as a GDP/GTP—regulated binary switch that regulates signal transduction pathways controlling actin cytoskeletal reorganization. […] Expression of rhoA was determined by Quantitative RT-PCR in oligodendrocytes treated with MECA or untreated for various times, as set forth below. […] Quantitative RT-PCR was set up as per standard protocol as a single step reaction. […]

[3] = test system: MOG surface expression in cortical oligodendrocytes; assay: MOG cell surface label, cortical oligodendrocytes (time course and dose response); format: cell-based, rat
Protocol: as §1
To determine whether the surface expression of MOG would follow the same time course as that observed for the ADORA1 agonist, MECA, in the optic nerve myelination system, oligodendrocyte-enriched cortical cells were plated on PEI-coated plates in mitogenic medium, containing PDGFAA, and NT3 as factors stimulating proliferation. After 3 days, cells were switched to differentiation medium containing CNTF and NT3. 200 μM MECA was added either the same day or 24 hours later and was incubated on the cells for 24 hours, 48 hours, 72 hours, 4 days, and 7 days continuously. The cells were surface-labeled with an antibody to MOG, after the described incubation. For the ADORA1 agonist dose response experiment, MECA was added at concentrations of 200 μM, 100 μM, 50 μM, 25 μM and 12.5 μM, 24 hours after switching to differentiation medium, and was incubated on the cells continuously. On day 7, cells were surface-labeled with an anti-MOG antibody.

[4] = test system: optic nerve oligodendrocytes; assay: Gene expression profiling (Affymetrix Rat genome 230 2.0), control vs 3-day MECA stimulated ON-oligodendrocytes; format: cell-based; conditions: p-value <0.05
From the text: To identify transient versus long-term gene expression changes, control and 3-day ADORA1 agonist (MECA) stimulated optic nerve oligodendrocytes were compared. As described elsewhere herein, 3 days of ADORA1 stimulation were sufficient to obtain myelin segments in the optic nerve myelination system. RNA samples were generated in triplicate, each replicate generated by pooling RNA from two separate oligodendrocyte preps (one prep from 12 litters of post-natal day 4 SD pups). RNA samples were analyzed for gene expression profiling using the Affymetrix GeneChip™ Rat genome 230 2.0 Array that provides coverage of approximately 30,000 transcripts. RNA was amplified using the MessageAmp II aRNA kit from Ambion to generate sufficient amounts of RNA for hybridization to arrays, as previously described.

[5] = test system: optic nerve oligodendrocytes; assay: Gene expression profiling, control vs 1-day MECA-treated ON-oligodendrocytes; format: cell-based, rat; conditions: p-value <0.05, 1.2 fold-change cutoff
Protocol: Based on the results obtained with rhoA expression, 24 hours was selected as the first time point in a broader gene expression analysis. Total RNA was isolated from control, and MECA-stimulated oligodendrocytes were harvested 24 hours after the addition of MECA. RNA samples were generated in triplicate, each replicate generated by pooling RNA from three separate oligodendrocyte preps (one prep from 12 litters (10 pups each) of post-natal day 5 SD pups). RNA samples were analyzed by gene expression profiling using the Affymetrix GeneChip™ Rat genome 230 2.0 Array that provides coverage of approximately 30,000 transcripts, i.e., the entire transcribed rat genome. RNA submitted was amplified by Expression Analysis using the MessageAmp II aRNA kit from Ambion to generate sufficient amounts of RNA for hybridization to arrays. A2B5 and cells were plated in 6-well plates and allowed to divide for 48 hours. Approximately 500,000 cells were plated per well. Two micrograms of RNA was subsequently used for analysis.
To identify gene expression changes occurring during myelination, total RNA was isolated from control and MECA-stimulated oligodendrocytes 24 hours after the addition of MECA. RNA samples were generated in triplicate, each replicate generated by pooling RNA from three separate oligodendrocyte preps. RNA samples (2 μg/sample) were submitted to Expression Analysis for gene expression profiling using the Affymetrix GeneChip™ Rat genome 230 2.0 Array that provides coverage of approximately 30,000 transcripts. RNA submitted using the MessageAmp II aRNA kit from Ambion to generate sufficient amounts of RNA for hybridization to arrays.

[6] = test system: optic nerve oligodendrocytes; assay: In vitro myelination assay: co-culture of retinal ganglion cells and optic nerve oligodendrocytes; format: cell-based, rat
Protocol: Co-cultures of RGCs and optic nerve oligodendrocytes were prepared and used as follows. Purified oligodendrocytes were plated on PDL/merosin (Chemicon) substrate-coated tissue culture dishes in defined DMEM Sato medium, promoting proliferation for two days. After 2 days, the medium was switched to defined DMEM Sato medium, which contained factors to promote differentiation. Twenty-four hours after the switch to differentiation medium, ADORA1 agonists were added. Retinal ganglion cells were plated 24 hours thereafter, and the medium consisted of 50% astrocyte-conditioned medium (method see above) with DMEM Sato medium mixed with fresh defined Neurobasal™ (Invitrogen) Sato medium, containing B27™ supplement and growth factors (BDNF and CNTF), to promote retinal ganglion cell survival and 0.5% FBS. The FBS was added to help retinal ganglion cell survival. This is because forskolin, which up-regulates cAMP, could not be used when adding any ADORA agonists or antagonists, since these receptors are G-protein-coupled receptors and therefore, regulators of cAMP themselves. Cultures were grown for two weeks, with medium changes occurring every three days.
Optic nerve or cortical oligodendrocytes were purified from postnatal day 2-day 5 old rat pups by immuno-panning with the A2B5 antibody (ATCC). Retinal ganglion cells were purified from 5 day old rats by immunopanning with the Thy1 antibody T11D7.
Purified oligodendrocytes were plated on PDL/merosin substrate-coated tissue culture dishes in defined DMEM Sato medium, promoting proliferation for two days. After 2 days, the medium was switched to defined DMEM Sato medium, containing factors promoting differentiation. Twenty-four hours after the switch to differentiation medium, ADORA1 agonists were added. Retinal ganglion cells were plated 24 hours thereafter, and medium consisted of astrocyte-conditioned medium with DMEM Sato medium mixed with defined Neurobasal™ Sato medium, containing growth factors promoting retinal ganglion cell survival and 0.5% FBS.
Cultures were grown for two weeks, with medium changes occurring every three days. Control co-cultures were devoid of myelin segments, whereas oligodendrocytes co-cultures with ADORA1 agonist contained myelin segments originating from approximately 90% of the oligodendrocytes in these cultures.
To address whether the effect of the adenosine 1 receptor (ADORA1) agonist only affects oligodendrocytes, or also affects retinal ganglion cells (RGCs) to lead to myelination, purified rat optic nerve oligodendrocytes were plated on PEI-pre-coated culture dishes (6-well plates, Falcon BD) in mitogenic medium and cultured for two days. After two days, oligodendrocytes were switched to differentiation medium and the agonist MECA (Sigma) was added at a 200 μM concentration to this culture medium 24 hours later. The agonist was removed by washing the cells at 24, 48 and 72 hours, respectively, after its administration. Oligodendrocytes were subsequently taken off the PEI plates by incubation with Trypsin (535 units/ml) in Earle's Balanced Salt Solution (EBSS; Invitrogen) at 37° C. for 5 minutes, washed with PBS containing 30% FBS (Hyclone) and were plated onto RGCs grown for one week on PDL/merosin substrate. Cultures were fixed for immunohistochemistry two weeks after co-plating the oligodendrocytes with the RGCs. Since the oligodendrocytes were pre-incubated separately with the ADORA1 agonist before they were added to the RGCs, the myelin figures observed in FIG. 6 are due to the switch in the oligodendrocytes themselves from a non-myelinating to a myelinating phenotype.
To address the question of whether it is a permanent or a reversible switch if the oligodendrocytes are cultured without neurons, oligodendrocytes were treated with ADORA1 agonist for 72 hours and kept in culture alone for another 5 days. Cultured oligodendrocytes were then removed from the PEI-coated plate and co-cultured with RGCs grown for one week in culture. […]

[7] = test system: cortical oligodendrocytes; assay: Gene expression profiling (Affymetrix Rat 230 2.0), control vs 1-day MECA stimulated cortical oligodendrocytes; format: cell-based
From the text: As a second filter to determine which genes were commonly regulated between pure optic nerve and enriched cortical oligodendrocytes, gene expression analysis comparing non-myelinating cortical oligodendrocytes with 1-day MECA induced cortical oligodendrocytes committed to myelination was made. Since cortical oligodendrocyte cell preparations yield larger numbers of cells, determining overlap between 1-day MECA treated ON-oligodendrocytes and 1-day MECA treated cortical oligodendrocytes help determine if use of cortical oligodendrocytes for future experiments to test genes of interest is a feasible option. Cortical oligodendrocytes were isolated from 2 litters of newborn SD rat pups. RNA for replicates were isolated from the cells which were plated on 3 separate 6-well tissue culture plates (approximately 500,000 cells per well) with control and treated cells included in separate wells on each plate. The important caveat to keep in mind when comparing gene expression in cortical oligodendrocytes with ON-oligodendrocytes is that the cortical oligodendrocytes are not a pure cell population. Cortical oligodendrocytes comprise approximately 80% oligodendrocytes and about 20% astrocytes, with some neuronal cells. Total RNA was generated in triplicate and hybridized to Affymetrix GeneChip™ Rat 230 2.0 arrays with approximately 30,000 genes. RNA submitted for analysis was amplified using the MessageAmp II aRNA kit from Ambion to generate sufficient amounts of RNA for hybridization to arrays and to keep sample preparation conditions similar to 1-day control and MECA treated ON-oligodendrocytes set forth elsewhere herein. Table 2 provides a summary of differentially regulated genes from comparison of control and 1-day MECA stimulated cortical oligodendrocytes.

[8] = test system: cortical oligodendrocytes; conditions: added to the co-cultures; cited from earlier work

CNC(=O)[C@H]1O[C@@H](n2cnc3c(N)ncnc32)[C@H](O)[C@@H]1O [MECA, 5′-N-methylcarboxamidoadenosine]
MOG protein expression on the cell surface [1]: remained low | rhoA expression compared to control (untreated) ([2]; day 1 of MECA treatment, n=3): two-fold reduction | rhoA expression compared to control (untreated) ([2]; other time points (6 hours, 16 hours, 2 days, 3 days)): No significant differences | time MECA must be present to repress MOG surface expression ([3]; 200 μM MECA): at least 72 hours | MOG protein expression on the cell surface ([3]; after 7 days, control oligodendrocytes up-regulated MOG): remained low | concentrations insufficient to repress MOG surface expression ([3]; continuous incubation, surface label on day 7): below 100 μM | differentially regulated genes, fold change >1.1 fold [4]: 2721 genes | differentially regulated genes, fold change >1.2 fold [4]: 2428 genes | differentially regulated genes, fold change >1.5 fold [4]: 1021 genes | down-regulated changes [4]: 52% | up-regulated changes [4]: 48% | overlap of differentially regulated genes between ON- and cortical oligodendrocytes [5]: 414 genes | total differentially regulated genes in the group comparison [5]: 1831 genes | genes exclusive to ON-oligodendrocytes ([5]; versus cortical oligodendrocytes): 1417 genes | amount of myelin figures with continuous agonist ([6]; MECA present throughout the two weeks of co-culture with RGCs): optimal amount of myelin figures | myelin formation versus control cultures ([6]; after eight days in co-culture): myelin was observed covering the whole length of an axon | myelin formation versus control cultures ([6]; after five days in co-culture): no significant difference | myelin formation versus control cultures ([6]; after two weeks in co-culture): the segments (internodes) form | switch from non-myelinating to myelinating phenotype: permanent or reversible ([6]; agonist 72 hours, then 5 days in culture alone, then co-culture with RGCs two weeks): permanent switch | doses that would not produce myelin segments ([6]; optic nerve myelination system dose-response): below 100 μM | differentially regulated genes, fold change >1.1 fold ([7]; p-value <0.05): 1969 genes | differentially regulated genes, fold change >1.2 fold ([7]; p-value <0.05): 1425 genes | differentially regulated genes, fold change >1.5 fold ([7]; p-value <0.05): 252 genes | down-regulated changes ([7]; p-value <0.05): 49% | up-regulated changes ([7]; p-value <0.05): 51% | total differentially regulated genes in the group comparison ([7]; p-value <0.05, 1.2 fold-change cutoff): 1339 genes | genes exclusive to cortical oligodendrocytes ([7]; p-value <0.05, 1.2 fold-change cutoff, versus ON-oligodendrocytes): 925 genes

Nc1ncnc2c1ncn2[C@@H]1O[C@H](CO)[C@@H](O)[C@H]1O [adenosine]
amount of myelin observed [8]: increased the amount of myelin observed | adenosine responsiveness as measured by percentage of myelination ([6]; early versus late stage of oligodendrocyte differentiation): more responsive to adenosine at the early stage of differentiation | oligodendrocytes establishing segments of myelin on individual axons ([6]; in the presence of adenosine or ADORA1 agonist, co-culture grown two weeks, control devoid of myelin segments): approximately 90%
